Results taken from paper PMC6576746, “Rational discovery of dual-indication multi-target PDE/Kinase inhibitor for precision anti-cancer therapy using structural systems pharmacology” (PLoS Computational Biology, 2019).

Experiments:
Assay in all cases: biochemical
Parameters in all cases: DiscoverX KinomeScan competition binding assay across human kinases; per cent of control at 10 and 100 uM
ACVR2A = ACVR2A (Homo sapiens, UniProt P27037); conditions: competition binding, % of control
How it was run: (§1)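 KinomeScan competition binding was run across a human kinase panel at 10 μM and 100 μM levosimendan. Results are %control = (test − positive control)/(negative control − positive control) × 100.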

CDKL1 = CDKL1 (Homo sapiens, UniProt Q00532); conditions: competition binding, % of control
How it was run: as §1

CSNK1D = CSNK1D (Homo sapiens, UniProt P48730); conditions: competition binding, % of control; read-out: Percent Control (100 uM Levosimendan)
How it was run: as §1

DCAMKL3 = target: T1, DCAMKL3 (Homo sapiens, UniProt Q9C098); conditions: competition binding, % of control; read-out: Percent Control (100 uM Levosimendan)
T1 construct: gene DCLK3
How it was run: as §1

DRAK1 = target: T2, DRAK1 (Homo sapiens, UniProt Q9UEE5); conditions: competition binding, % of control
T2 construct: gene STK17A
How it was run: as §1

EGFR = EGFR (Homo sapiens, UniProt P00533); conditions: competition binding, % of control
How it was run: as §1

MAPKAPK2 = MAPKAPK2 (Homo sapiens, UniProt P49137); conditions: competition binding, % of control; read-out: Percent Control (100 uM Levosimendan)
How it was run: as §1

MARK4 = MARK4 (Homo sapiens, UniProt Q96L34); conditions: competition binding, % of control; read-out: Percent Control (100 uM Levosimendan)
How it was run: as §1

MAST1 = MAST1 (Homo sapiens, UniProt Q9Y2H9); conditions: competition binding, % of control; read-out: Percent Control (100 uM Levosimendan)
How it was run: as §1

MYLK = MYLK (Homo sapiens, UniProt Q15746); conditions: competition binding, % of control
How it was run: as §1

PIK3CG = PIK3CG (Homo sapiens, UniProt P48736); conditions: competition binding, % of control; read-out: Percent Control (100 uM Levosimendan)
How it was run: as §1

PIM1 = PIM1 (Homo sapiens, UniProt P11309); conditions: competition binding, % of control; read-out: Percent Control (100 uM Levosimendan)
How it was run: as §1

PRKCQ = PRKCQ (Homo sapiens, UniProt Q04759); conditions: competition binding, % of control
How it was run: as §1

PRKX = PRKX (Homo sapiens, UniProt P51817); conditions: competition binding, % of control; read-out: Percent Control (100 uM Levosimendan)
How it was run: as §1

SGK2 = SGK2 (Homo sapiens, UniProt Q9HBY8); conditions: competition binding, % of control; read-out: Percent Control (100 uM Levosimendan)
How it was run: as §1

TAOK2 = TAOK2 (Homo sapiens, UniProt Q9UL54); conditions: competition binding, % of control; read-out: Percent Control (100 uM Levosimendan)
How it was run: as §1

WNK1 = WNK1 (Homo sapiens, UniProt Q9H4A3); conditions: competition binding, % of control; read-out: Percent Control (100 uM Levosimendan)
How it was run: as §1

WNK4 = WNK4 (Homo sapiens, UniProt Q96J92); conditions: competition binding, % of control; read-out: Percent Control (100 uM Levosimendan)
How it was run: as §1

YANK1 = target: T3, YANK1 (Homo sapiens, UniProt Q8WU08); conditions: competition binding, % of control; read-out: Percent Control (100 uM Levosimendan)
T3 construct: gene STK32A
How it was run: as §1

[1] = read-out: Percent Control (10 uM Levosimendan)
[2] = read-out: Percent Control (100 uM Levosimendan)

Sequence of ACVR2A (P27037 whole entry): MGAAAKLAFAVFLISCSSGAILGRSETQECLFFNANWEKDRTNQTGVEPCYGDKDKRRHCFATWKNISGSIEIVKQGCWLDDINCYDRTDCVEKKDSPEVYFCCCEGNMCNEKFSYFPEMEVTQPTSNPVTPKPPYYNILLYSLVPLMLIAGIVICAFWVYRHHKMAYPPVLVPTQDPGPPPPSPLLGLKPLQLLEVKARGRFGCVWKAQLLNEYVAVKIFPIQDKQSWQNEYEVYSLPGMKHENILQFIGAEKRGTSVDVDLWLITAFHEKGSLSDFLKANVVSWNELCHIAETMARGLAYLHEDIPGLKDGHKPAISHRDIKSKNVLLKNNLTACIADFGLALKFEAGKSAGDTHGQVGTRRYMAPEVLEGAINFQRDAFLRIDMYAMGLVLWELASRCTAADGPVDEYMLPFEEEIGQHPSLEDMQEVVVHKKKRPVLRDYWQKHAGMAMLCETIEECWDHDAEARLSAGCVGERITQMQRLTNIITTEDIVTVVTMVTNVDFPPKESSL
Sequence of MYLK (Q15746 whole entry): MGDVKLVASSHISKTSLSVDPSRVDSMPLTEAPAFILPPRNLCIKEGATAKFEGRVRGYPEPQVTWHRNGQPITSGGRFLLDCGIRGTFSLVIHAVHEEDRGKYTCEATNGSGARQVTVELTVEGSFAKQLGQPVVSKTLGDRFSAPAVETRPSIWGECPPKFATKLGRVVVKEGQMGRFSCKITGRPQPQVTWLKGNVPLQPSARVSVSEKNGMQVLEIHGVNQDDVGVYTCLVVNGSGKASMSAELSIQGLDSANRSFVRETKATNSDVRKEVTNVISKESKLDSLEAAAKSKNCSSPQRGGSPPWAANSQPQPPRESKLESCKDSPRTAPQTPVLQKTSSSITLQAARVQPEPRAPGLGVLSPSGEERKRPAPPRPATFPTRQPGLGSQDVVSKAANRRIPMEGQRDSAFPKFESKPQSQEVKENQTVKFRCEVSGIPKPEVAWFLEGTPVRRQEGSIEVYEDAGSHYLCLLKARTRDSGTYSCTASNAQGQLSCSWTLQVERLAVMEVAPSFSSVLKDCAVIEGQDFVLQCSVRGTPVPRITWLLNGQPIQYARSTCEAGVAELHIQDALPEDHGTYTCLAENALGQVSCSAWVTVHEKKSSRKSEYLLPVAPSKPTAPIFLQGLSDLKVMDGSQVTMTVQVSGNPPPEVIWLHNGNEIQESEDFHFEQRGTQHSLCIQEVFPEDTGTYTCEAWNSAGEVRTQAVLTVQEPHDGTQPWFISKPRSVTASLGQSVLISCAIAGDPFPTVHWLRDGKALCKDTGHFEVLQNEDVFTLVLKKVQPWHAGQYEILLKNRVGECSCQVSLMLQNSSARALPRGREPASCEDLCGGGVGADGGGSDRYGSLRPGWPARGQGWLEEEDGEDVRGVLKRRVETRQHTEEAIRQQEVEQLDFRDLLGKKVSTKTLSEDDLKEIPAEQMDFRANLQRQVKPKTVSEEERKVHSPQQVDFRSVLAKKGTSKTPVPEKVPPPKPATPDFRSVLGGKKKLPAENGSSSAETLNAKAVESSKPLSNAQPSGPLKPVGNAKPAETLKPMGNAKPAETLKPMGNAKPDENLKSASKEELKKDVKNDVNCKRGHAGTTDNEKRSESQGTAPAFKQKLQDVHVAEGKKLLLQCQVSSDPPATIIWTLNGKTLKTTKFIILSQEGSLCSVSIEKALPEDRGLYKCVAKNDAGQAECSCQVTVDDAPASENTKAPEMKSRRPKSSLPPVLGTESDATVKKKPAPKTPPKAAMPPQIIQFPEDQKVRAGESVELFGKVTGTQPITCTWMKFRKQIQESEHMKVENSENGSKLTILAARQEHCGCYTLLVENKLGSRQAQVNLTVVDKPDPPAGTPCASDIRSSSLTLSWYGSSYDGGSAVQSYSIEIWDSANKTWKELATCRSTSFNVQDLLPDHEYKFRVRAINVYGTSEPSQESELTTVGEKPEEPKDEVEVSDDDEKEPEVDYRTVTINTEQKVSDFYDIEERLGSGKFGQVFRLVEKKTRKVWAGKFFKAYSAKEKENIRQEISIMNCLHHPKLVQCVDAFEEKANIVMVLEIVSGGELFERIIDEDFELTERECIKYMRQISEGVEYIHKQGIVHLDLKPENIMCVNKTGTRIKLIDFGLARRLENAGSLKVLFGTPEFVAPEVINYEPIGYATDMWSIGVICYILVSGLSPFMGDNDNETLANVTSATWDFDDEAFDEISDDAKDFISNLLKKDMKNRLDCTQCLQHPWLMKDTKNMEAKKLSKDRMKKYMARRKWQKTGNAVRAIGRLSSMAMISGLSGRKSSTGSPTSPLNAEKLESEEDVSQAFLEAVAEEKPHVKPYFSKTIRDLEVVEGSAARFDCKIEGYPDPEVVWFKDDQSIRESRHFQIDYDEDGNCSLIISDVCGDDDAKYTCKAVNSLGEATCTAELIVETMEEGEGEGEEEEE
Sequence of PRKCQ (Q04759 whole entry): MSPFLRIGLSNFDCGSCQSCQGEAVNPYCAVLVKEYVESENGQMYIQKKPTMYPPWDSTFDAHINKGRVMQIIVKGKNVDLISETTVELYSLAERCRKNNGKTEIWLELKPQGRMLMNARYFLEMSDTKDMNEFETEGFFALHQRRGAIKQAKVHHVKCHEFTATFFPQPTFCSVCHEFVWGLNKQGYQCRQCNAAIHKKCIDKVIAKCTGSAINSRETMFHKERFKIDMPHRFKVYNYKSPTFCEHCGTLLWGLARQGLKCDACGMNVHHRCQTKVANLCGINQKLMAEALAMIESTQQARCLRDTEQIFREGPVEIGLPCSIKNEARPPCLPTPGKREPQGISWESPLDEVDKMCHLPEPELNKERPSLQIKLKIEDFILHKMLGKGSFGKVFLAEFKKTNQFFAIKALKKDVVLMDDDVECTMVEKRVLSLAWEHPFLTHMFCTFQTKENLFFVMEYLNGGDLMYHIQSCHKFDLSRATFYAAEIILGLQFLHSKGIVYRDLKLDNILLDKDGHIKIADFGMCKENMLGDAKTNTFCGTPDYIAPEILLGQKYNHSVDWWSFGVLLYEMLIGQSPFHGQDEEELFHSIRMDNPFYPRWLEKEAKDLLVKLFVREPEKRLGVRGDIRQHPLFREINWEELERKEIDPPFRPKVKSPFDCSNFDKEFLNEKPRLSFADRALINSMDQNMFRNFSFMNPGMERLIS
Sequence of EGFR (P00533 whole entry): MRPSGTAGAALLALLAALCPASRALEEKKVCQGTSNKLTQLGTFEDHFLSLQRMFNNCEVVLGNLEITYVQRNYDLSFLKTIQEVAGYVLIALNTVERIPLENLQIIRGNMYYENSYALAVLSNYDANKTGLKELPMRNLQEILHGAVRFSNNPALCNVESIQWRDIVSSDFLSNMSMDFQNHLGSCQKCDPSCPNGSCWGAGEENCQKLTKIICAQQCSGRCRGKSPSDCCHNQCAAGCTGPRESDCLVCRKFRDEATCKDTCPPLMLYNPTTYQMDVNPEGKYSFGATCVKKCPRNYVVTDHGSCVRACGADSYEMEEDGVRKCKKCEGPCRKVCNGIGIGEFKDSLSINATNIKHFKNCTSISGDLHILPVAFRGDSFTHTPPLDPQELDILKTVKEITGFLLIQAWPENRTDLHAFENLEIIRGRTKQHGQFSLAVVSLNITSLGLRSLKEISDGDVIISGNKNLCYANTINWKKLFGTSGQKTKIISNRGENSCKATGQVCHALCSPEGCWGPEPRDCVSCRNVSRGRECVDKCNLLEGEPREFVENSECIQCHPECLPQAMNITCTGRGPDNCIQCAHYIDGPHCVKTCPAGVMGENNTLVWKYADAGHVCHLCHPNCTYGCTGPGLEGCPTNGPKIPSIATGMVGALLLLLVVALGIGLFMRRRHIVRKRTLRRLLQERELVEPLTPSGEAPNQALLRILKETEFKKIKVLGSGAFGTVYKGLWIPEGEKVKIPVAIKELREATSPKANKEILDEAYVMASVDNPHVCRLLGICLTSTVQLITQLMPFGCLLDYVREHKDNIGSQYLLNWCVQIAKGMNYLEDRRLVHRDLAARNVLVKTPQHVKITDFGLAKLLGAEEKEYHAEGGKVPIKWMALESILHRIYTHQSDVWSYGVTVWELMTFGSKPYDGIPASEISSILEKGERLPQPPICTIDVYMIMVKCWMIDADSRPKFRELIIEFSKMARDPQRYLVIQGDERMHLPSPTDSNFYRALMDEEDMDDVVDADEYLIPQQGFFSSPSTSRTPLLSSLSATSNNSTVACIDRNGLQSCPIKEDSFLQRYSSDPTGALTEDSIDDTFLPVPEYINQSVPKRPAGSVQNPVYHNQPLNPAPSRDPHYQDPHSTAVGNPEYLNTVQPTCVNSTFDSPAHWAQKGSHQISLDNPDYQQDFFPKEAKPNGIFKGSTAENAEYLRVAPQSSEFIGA
T2 sequence (Q9UEE5 whole entry): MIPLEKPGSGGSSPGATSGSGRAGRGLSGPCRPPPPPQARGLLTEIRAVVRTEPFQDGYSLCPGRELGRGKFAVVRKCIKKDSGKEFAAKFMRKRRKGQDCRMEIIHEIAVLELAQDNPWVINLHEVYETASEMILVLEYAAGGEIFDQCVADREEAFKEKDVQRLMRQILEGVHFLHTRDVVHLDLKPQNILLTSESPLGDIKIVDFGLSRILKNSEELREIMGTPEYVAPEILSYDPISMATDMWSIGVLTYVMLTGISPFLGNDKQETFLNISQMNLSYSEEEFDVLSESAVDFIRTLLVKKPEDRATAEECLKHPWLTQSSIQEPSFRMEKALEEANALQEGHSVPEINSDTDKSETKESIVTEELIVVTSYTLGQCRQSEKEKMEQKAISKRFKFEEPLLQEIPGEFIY
Sequence of PIM1 (P11309 whole entry): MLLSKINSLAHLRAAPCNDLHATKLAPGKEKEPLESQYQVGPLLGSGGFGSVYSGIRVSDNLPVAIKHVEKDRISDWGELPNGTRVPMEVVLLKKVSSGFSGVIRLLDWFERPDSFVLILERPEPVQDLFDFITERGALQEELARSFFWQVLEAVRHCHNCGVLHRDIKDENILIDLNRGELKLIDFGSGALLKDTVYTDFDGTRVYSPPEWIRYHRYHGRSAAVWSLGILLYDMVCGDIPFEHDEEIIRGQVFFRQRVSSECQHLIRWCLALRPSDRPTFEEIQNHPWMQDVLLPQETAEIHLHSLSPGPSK

Work on C[C@@H]1CC(=O)NN=C1c1ccc(NN=C(C#N)C#N)cc1 [levosimendan] yielded a remaining binding at 10 µM (ACVR2A; [1]) of 100%, a remaining binding at 100 µM (ACVR2A; [2]) of 46% and a remaining binding at 10 µM (CDKL1; [1]) of 88%. For the same molecule, the remaining binding at 100 µM (CDKL1; [2]) was 47%, the remaining binding at 100 µM (CSNK1D) was 84% and the remaining binding at 100 µM (DCAMKL3) was 100%. The remaining binding at 10 µM (DRAK1; [1]) was 87%, the remaining binding at 100 µM (DRAK1; [2]) was 22% and the remaining binding at 10 µM (EGFR; [1]) was 78%. It also gave a remaining binding at 100 µM (EGFR; [2]) of 28%, a remaining binding at 100 µM (MAPKAPK2) of 100% and a remaining binding at 100 µM (MARK4) of 87%. It also gave a remaining binding at 100 µM (MAST1) of 100%, a remaining binding at 10 µM (MYLK; [1]) of 38% and a remaining binding at 100 µM (MYLK; [2]) of 32%. For the same molecule, the remaining binding at 100 µM (PIK3CG) was 80%, the remaining binding at 100 µM (PIM1) was 64% and the remaining binding at 10 µM (PRKCQ; [1]) was 5.2%. For the same molecule, the remaining binding at 100 µM (PRKCQ; [2]) was 36%, the remaining binding at 100 µM (PRKX) was 76% and the remaining binding at 100 µM (SGK2) was 90%. It also gave a remaining binding at 100 µM (TAOK2) of 89%, a remaining binding at 100 µM (WNK1) of 100% and a remaining binding at 100 µM (WNK4) of 95%. It also gave a remaining binding at 100 µM (YANK1) of 94%.
